Measured values as given in publication PMC10861593, “Kisspeptin-10 binding to Gpr54 in osteoclasts prevents bone loss by activating Dusp18-mediated dephosphorylation of Src” (Nature Communications, 2024).
Entries after “also recorded” stand apart in the source; their conditions may differ.

Key:
[1] = tested on: osteoclast formation from BMMs; assay: TRAP staining of osteoclast formation from BMMs; type: cell-based, mouse
Src (Y416) = assay: IB of Src (Y416) phosphorylation in BMMs / osteoclasts; type: cell-based, mouse; details: for Src phosphorylation: Kp-10 20 min; for phosphorylation of Src (Y416): indicated dose of Kp-10 for 1 h; for phosphorylation of Src: Kp-10 1 h
Experimental: Fig. 1 Kp-10 /Gpr54 governs osteoclasts formation and bone resorption mainly via suppression of Src phosphorylation. a–d IB analysis of whole cell lysates (WCL) derived from BMMs isolated from eight-week-old wild-type (WT) and Gpr54^−/− mice. BMMs were starved in serum-free α-MEM for 4 h and then treated with 100 ng/mL RANKL for different time (a) and quantification of protein levels (b), incubated with indicated dose of Kp-10 for 1 h (c) and quantification of protein levels (d). e–i BMMs isolated from eight-week-old WT and Gpr54^−/− mice were stimulated with M-CSF (10 ng/ml) and RANKL (50 ng/ml) for 5–7 days. Representative TRAP staining images are shown. Scale bar, 250 µm (e) and the number of osteoclasts/well was counted (f). Phalloidin staining of F-actin ring is shown. Scale bar, 250 µm, 50 µm (g), the area (h) and nuclei numbers (i) per actin ring were counted. j, k BMMs isolated from eight-week-old WT and Gpr54^−/− mice were cultured in vitro on dentin slices, and after incubation with M-CSF (10 ng/ml) and RANKL (50 ng/ml) for 5–7 days, the pits formed by osteoclast absorption activity were scanned by confocal microscopy (x, y, and z sections). Scale bar, 125 µm (j), and pits depth were quantified by confocal microscopy (k). Data represent means ± SEM. P values were determined by two-way ANOVA analysis (b), one-way ANOVA analysis (d, f, k), or two-tailed Student’s t-test (h, i), Representative results were obtained from at least three independent experiments. Source data are provided as a Source Data file.
Whole-cell proteins were extracted using 1x RIPA buffer (25 mM Tris, pH7.5, 150 mM NaCl, 0.5% Sodium deoxycholate, 1% Triton-X-100) supplemented with protease inhibitors (Complete Mini, Roche) and phosphatase inhibitors (phosphatase inhibitor cocktail set I and II, Calbiochem). Immunoprecipitation and immunoblotting with indicated antibodies were performed as described in Supplementary Table 1. Image Jsoftware (V1.52) was used for quantification analysis. Uncropped and unprocessed blots are presented in the Supplementary Information file.
Supplementary Fig. 1 a, b IB analysis of whole cell lysates (WCL) derived from BMMs isolated from eight-week-old wild-type (WT) and Gpr54 ^-/- mice. BMMs were starved in serum-free α-MEM for 4 hours and then treated with indicated doses of Kp-10 for 1 hour and followed by the addition of 50 ng/mL M-CSF, 100 ng/mL RANKL for another 30 minutes (a) and quantification of protein levels (b). c, d Elisa assay showing Kisspeptins derived from the process of osteoblast or osteoclast differentiation in vitro. Kisspeptins normalization was based on the same number of MSCs, BMMs which were seeded on the plates before differentiation stimulation (c), and serum Kisspeptins from Sham (n=8) and OVX (n=7) mice (d). Representative results were obtained from at least three independent experiments. Error bars are ± SEM. P-values were determined by one-way ANOVA analysis (a) or two-tailed Student’s t-test (b). *P <0.05, ***P <0.001, ****P <0.0001. Representative results were obtained from at least three independent experiments. Source data are provided as a Source Data file.

[2] = tested on: osteoblast differentiation; details: in vitro, KP-10 5 and 50 μM; ref 46 (Son et al.); cited from earlier work
Text: Typically, GPCR activation with increasing of ligand concentration generates different signalings and phenotypes. […] Furthermore, we foun ...

[3] = tested on: Gpr54, Src and Dusp18 co-localization; assay: IF staining / TIRF microscopy co-localization in pre-osteoclasts; type: cell-based, mouse; details: 10 nM Kp-10 20 min
Experimental: For endogenous IF staining, BMMs were seeded on confocal dishes and induced by 50 ng/ml RANKL and 10 ng/ml M-CSF for 2 days, and subsequently incubated with or without Kp-10 for 20 min. Cells were fixed in 10% TCA and incubated with anti-Gpr54 (Cell Signaling Technologies, 13776, 1:100), anti-Dusp18 (Santa Cruz., sc-376923, 1:100), or anti-Src (Cell Signaling Technologies, 2110, 1:400) or anti-Src (Cell Signaling Technologies, 2109, 1:400) overnight. IF staining of membrane colocation of Gpr54 with Src or Dusp18, and Src with Dusp18 were detected by Alexa Fluor™ 594 Tyramide SuperBoost™ Kit (Invitrogen, B40925) and Alexa Fluor™ 488 Tyramide SuperBoost™ Kit (Invitrogen, B40912) according to manufacturer’s instructions. The images were obtained by total internal reflection fluorescence (TIRF) microscopy (Ti2-E + H-TIRF, Nikon).

[4] = tested on: osteoclast bone resorption; assay: pit assay (bone resorption); type: cell-based, mouse; details: for bone resorption: dentin slices, 5–7 days

For Kisspeptin-10 [Kp-10], the osteoclast formation ([1]; Arrb1 knockout BMMs) was “still suppressed by Kp-10; also recorded: still blocked osteoclast formation”, the osteoclast formation ([1]; Arrb2 knockout BMMs) was “still suppressed by Kp-10; also recorded: still blocked osteoclast formation” and the “Src phosphorylation, 10 nM” value (Src (Y416); 10 nM Kp-10) was “more obviously blocked”. For the same substance, the Src phosphorylation (Src (Y416); Dusp18-depleted BMMs) was “failed to do so”, the “phosphorylation of Src (Y416)” value (Src (Y416); Gpr54 WT osteoclasts/BMMs) was “effectively reduced the phosphorylation of Src (Y416)” and the “phosphorylation of Src (Y416)” value (Src (Y416); Gpr54 knockout osteoclasts/BMMs) was “failed to inhibit Src (Y416) phosphorylation”. The “phosphorylation of Src” value (Src (Y416); Gq/11 KO BMMs) was “failed to have a significant effect”, the “phosphorylation of Src” value (Src (Y416); WT BMMs (Gq/11 experiment)) was “inhibited the phosphorylation of Src” and the Src phosphorylation (Src (Y416); WT pre-osteoclasts/BMMs (Dusp18 experiment)) was “blocked Src phosphorylation”. For the same substance, the “osteoblast differentiation at 5 and 50 μM” value [2] was “stimulated osteoblast differentiation in vitro”, the “co-localization of Dusp18 with Gpr54 in the plasma membrane” value [3] was “colocalized with Gpr54 in the plasma membrane especially after treatment of Kp-10” and the “co-localization of Dusp18 with Src in the plasma membrane” value [3] was “colocalized with Src in the plasma membrane especially after treatment with Kp-10”. The “co-localization of Src with Gpr54 on the membrane” value [3] was “co-localized on the membrane with Gpr54 especially after Kp-10 stimulation”, the “bone resorption (pit formation, pit depth)” value ([4]; Dusp18 WT osteoclasts) was “bone resorption was suppressed” and the bone resorption ([4]; Gpr54-WT osteoclasts) was “suppressed bone resorption”. For the same substance, the bone resorption ([4]; Gpr54 knockout osteoclasts) was “did not have a significant effect”.
